The subject of assay [1] is cancer cell growth (average). In words: Inhibition of cancer cell growth (average). The settings on record: Homo sapiens. The format is cell-based. Here is the method: Compound 754 was synthesized and tested for activity.
Cell Growth Inhibition Assays. The human tumor cell lines MCF-7 (breast adenocarcinoma), NCI-H460 (lung large cell) and SF-268 (central nervous system glioblastoma) were obtained from the National Cancer Institute. All lines were cultured in RPMI-1640 medium supplemented with 10% fetal bovine serum and 2 mM L-glutamine at 37° C. in a 5% CO2 atmosphere with 100% humidity. A broth microdilution method was used to determine IC50 values for growth inhibition by each bisphosphonate. […] NBPs were typically initially dissolved in H2O (0.01 M) while NNBPs were typically dissolved in DMSO (0.01 M). Plates were then incubated for 4 days at 37° C. in a 5% CO2 atmosphere at 100% humidity after which an MTT ((3-(4,5-dimethylthiazole-2-yl)-2,5-diphenyltetrazolium bromide) cell proliferation assay (ATCC, Manassas, Va.) was used to obtain dose-response curves. The DMSO carrier had no effect on cell proliferation.

Assay [2] concerns SF-268 (central nervous system glioblastoma). In words: SF-268 cell growth inhibition (MTT). The conditions noted are these: Homo sapiens, SF-268. The format is cell-based, human.

By pIC50 is commonly meant the negative decadic logarithm of the IC50, by convention in mol/L.

pIC50: −log10 of the molar value. Like-named read-outs stand apart in the source and are kept apart here.

For `CCCCCCCCCCOc1cccc(CC(O)(P(=O)(O)O)P(=O)(O)O)c1` [BPH-754], the pIC50 was 6.30 in assay [1] and 6.28 in assay [2] (read-out: IC50, inhibition of human CNS cancer SF268). In addition, the IC50 in assay [2] (Table 1, experimental, read-out: SF-268 pIC50 (converted)) is 25.1 µM.
